Here are results for 1 compound from patent publication US9827246B2, “Biomarkers of response to NAE inhibitors” (Millennium Pharmaceuticals, Inc., priority 2011, dated 2017).

Common to all, as to format: cell-based
Assay [1] concerns HT29. Kind of assay: Panel 1 cell viability screen. The conditions noted are these: HT-29; SMAD4 mutant. The procedure:
(§1) To support clinical development and identify potential biomarkers of tumor sensitivity or resistance, two large cancer cell line panels (Panel 1, N=653 (McDermott et al. (2007) PNAS 104:19936-19941); Panel 2, N=240 (O'Day et al. (2010) Fourth AACR International Conference on Molecular Diagnostics in Cancer Therapeutic Development)) were treated with MLN4924 and cell viability data (IC50, EC50, and POC—Percentage of Control) were generated.
(§2) Panel 1 (McDermott et al., supra). The cell lines were exposed to three MLN4924 concentrations (20 nM, 200 nM, and 2 μM) for 72 hours. Viability, i.e., cell number, was quantified by measuring fluorescence of a cell-permeant nucleic acid stain. Mean of triplicate values for each sample were taken and compared to DMSO control to calculate percentage of control. In the results, control or no activity value is given a value of about 1, sensitivity is indicated by a value less than 1, with 0 as death of the entire cell population and resistance indicated by a value greater than 1. A continuum of viability values was obtained for each concentration, so some values were selected as cut-offs for final determination of sensitivity or resistance. For example, median POC values of less than the median value of all POC's recorded in the panel (<0.34) indicated sensitivity, values of 0.34 to 0.75 indicated borderline sensitivity, values greater than the 3rd quartile of all POC's in the panel (>0.75) insensitivity or resistance. […] Final judgment of cell line as sensitive, insensitive or resistant was determined by its viability at 2 μM.

In assay [2] the test system is AsPC-1. Briefly: Panel 1 cell viability screen. The conditions noted are these: FBXW7 mutant. The procedure:
as §1, §2

Assay [3] relates to CFPAC-1. Briefly: Panel 1 cell viability screen. The conditions noted are these: SMAD4 mutant. The procedure:
as §1, §2

Assay [4] deals with SW 1463. Briefly: Panel 1 cell viability screen. The conditions noted are these: SW1463; FBXW7 mutant. The procedure: as §1, §2
Assay [5] has as its system PANC-08-13. Kind of assay: Panel 1 cell viability screen. The conditions noted are these: SMAD4 mutant. The procedure: as §1, §2
The subject of assay [6] is SW620. Kind of assay: Panel 1 cell viability screen. The conditions noted are these: SMAD4 mutant. The procedure: as §1, §2
Assay [7] has as its system MKN1. Briefly: Panel 1 cell viability screen. The conditions noted are these: FBXW7 mutant. The procedure:
as §1, §2

Assay [8] concerns BxPC-3. Briefly: Panel 1 cell viability screen. The conditions noted are these: SMAD4 mutant. The procedure:
as §1, §2

The subject of assay [9] is S-117. Kind of assay: Panel 1 cell viability screen. The conditions noted are these: NF2 mutant. The procedure: as §1, §2
Assay [10] deals with COLO-678. Kind of assay: Panel 1 cell viability screen. The conditions noted are these: SMAD4 mutant. The procedure:
as §1, §2

Assay [11] has as its system CAPAN-1. Briefly: Panel 1 cell viability screen. The conditions noted are these: SMAD4 mutant. The procedure: as §1, §2
Assay [12] concerns COCM1. Briefly: Panel 1 cell viability screen. The conditions noted are these: CoCM-1; SMAD4 mutant. The procedure: as §1, §2
Assay [13] deals with MKN45. Briefly: Panel 1 cell viability screen. The conditions noted are these: SMAD4 mutant. The procedure: as §1, §2
Assay [14] deals with RCM-1. Briefly: Panel 1 cell viability screen. The conditions noted are these: FBXW7 mutant. The procedure: as §1, §2
Assay [15] has as its system UMC-11. Briefly: Panel 1 cell viability screen. The conditions noted are these: SMAD4 mutant. The procedure:
as §1, §2

For assay [16], the system named is MDA-MB-231. Kind of assay: Panel 1 cell viability screen. The conditions noted are these: NF2 mutant. The procedure:
as §1, §2

Assay [17] concerns p21 in TP53−/− HCT-116 cells. Briefly: Western blots of p21.
Assay [18] has as its system SW 1116. Briefly: Panel 2 high-content cell screen. The conditions noted are these: Homo sapiens, 72 h, cell number. The procedure: as §1
(§3) Panel 2 (Ricerca Biosciences, Inc., Bothell, Wash.). MLN4924 was added in half-log dilutions for 10 concentrations and treated for 72 hours. High-content cell screening by fluorescence microscopy included image analysis to generate several types of data. Results included EC50 values (after measurement of cell numbers, the EC50 concentration was calculated from the inflection point of a curve of percent of control (POC) against log of MLN4924 concentration), IC50 values (from the POC-log MLN4924 plot, IC50 is the concentration at 50% maximal possible response), apoptosis (measurement of activation of caspase 3 plotted against log of MLN4924 concentration, determined as the concentration for >5 fold induction), and mitotic activity (determined by measuring the fold increase of phospho-histone 3). A comparison of EC50 to IC50 (FIG. 3) allowed assignment of cell lines to sensitive, insensitive or resistant. Final identification of a cell line as sensitive or resistant was based on the EC50 values. The cutoff for sensitivity is a median EC50 of less than the median value of all POC's recorded in the panel (<0.36), borderline sensitivity was associated with median EC50 of 0.36 to 1.67 and insensitive or resistant cell lines were identified by EC50 greater than the 3rd quartile of all POC's in the panel (>1.67).

For assay [19], the system named is NCI-H520. Kind of assay: Panel 2 high-content cell screen. The conditions noted are these: Homo sapiens, 72 h, cell number. The procedure:
as §1, §3

For assay [20], the system named is SK-OV-3. Kind of assay: Panel 2 high-content cell screen. The conditions noted are these: Homo sapiens, 72 h, cell number. The procedure: as §1, §3

Regarding `NS(=O)(=O)OC[C@@H]1C[C@@H](n2ccc3c(N[C@H]4CCc5ccccc54)ncnc32)C[C@@H]1O` [MLN4924, ((1S,2S,4R)-4-{4-[(1S)-2,3-dihydro-1H-inden-1-ylamino]-7H-pyrrolo[2,3-d]pyrimidin-7-yl}-2-hydroxycyclopentyl)methyl sulphamate], the Phenotype entry in assay [1] is recorded as “insensitive”; in assay [2], “resistant”; in [3], “sensitive?”; in assay [4], “resistant”; in assay [5] it was “resistant”; in [6], “insensitive”. The Phenotype entry in assay [7] is “insensitive”; in assay [8], “insensitive”; in [9] it was “resistant”; in [10], “resistant”; in assay [11], “sensitive?”; in [12], “resistant”. In addition, the Phenotype result in assay [13] is “insensitive”; in [14] it was “resistant”; in [15] it was “insensitive”; in assay [16], “insensitive”. Besides, the “p21 (Western blots)” value in assay [17] is on record as “still up-regulated”. Besides, the values for the half-maximal effective concentration (EC50) in [18], in assay [19] and in [20] were no less than 10 µM, 0.261 µM and no less than 10 µM, respectively.

The EC50 is the concentration giving half of the maximal effect.
